Patent publication US20260174716A1, “CRYSTAL FORM OF ALKYL CARBOXYLIC ACID COMPOUND AND USE THEREOF” (CONSUN PHARMACEUTICAL (INNER MONGOLIA) CO. LTD, priority 2022, published 2026)

Key:
[1] = Solid stability test (XRPD detection of crystal form); assay type: physicochemical
Source text: For samples placed under high temperature and high humidity conditions, the vial was sealed with aluminum foil punched with small holes to ensure that the samples were in full contact with the ambient air; for samples placed under strong light conditions, the vial was sealed with a threaded cap. The samples placed under different conditions were sampled and detected (XRPD) on day 5, day 10, and month 1, and the results were compared with the initial results on day 0.

sGC = biological target: T1, sGC (Homo sapiens, UniProt Q02153); experiment: cGMP expression test based on LNCap cells (HTRF, with ODQ); assay type: cell-based
T1 construct: Minimum effective concentration required to stimulate cGMP production in LNCap cells; endogenous in cells; host or cells: LNCaP cells (no transfection described)
T1 sequence (Q02153 1-619): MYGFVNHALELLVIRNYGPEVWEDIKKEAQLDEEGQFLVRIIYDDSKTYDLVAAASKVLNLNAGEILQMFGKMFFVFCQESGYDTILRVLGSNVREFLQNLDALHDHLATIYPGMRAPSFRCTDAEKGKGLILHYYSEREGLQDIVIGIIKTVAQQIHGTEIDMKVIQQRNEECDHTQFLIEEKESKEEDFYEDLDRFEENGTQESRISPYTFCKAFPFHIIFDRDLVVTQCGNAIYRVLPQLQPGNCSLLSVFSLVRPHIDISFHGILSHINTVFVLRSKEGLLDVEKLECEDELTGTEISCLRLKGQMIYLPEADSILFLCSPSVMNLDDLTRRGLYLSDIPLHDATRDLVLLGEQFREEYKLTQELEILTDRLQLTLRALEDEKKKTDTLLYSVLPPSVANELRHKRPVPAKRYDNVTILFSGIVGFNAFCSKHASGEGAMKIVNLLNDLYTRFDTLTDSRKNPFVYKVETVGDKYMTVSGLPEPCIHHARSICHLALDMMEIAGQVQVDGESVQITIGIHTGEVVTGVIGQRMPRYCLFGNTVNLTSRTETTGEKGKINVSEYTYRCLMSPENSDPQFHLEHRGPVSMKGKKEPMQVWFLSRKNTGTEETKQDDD
T1 sequence (Q02108 1-690 partner): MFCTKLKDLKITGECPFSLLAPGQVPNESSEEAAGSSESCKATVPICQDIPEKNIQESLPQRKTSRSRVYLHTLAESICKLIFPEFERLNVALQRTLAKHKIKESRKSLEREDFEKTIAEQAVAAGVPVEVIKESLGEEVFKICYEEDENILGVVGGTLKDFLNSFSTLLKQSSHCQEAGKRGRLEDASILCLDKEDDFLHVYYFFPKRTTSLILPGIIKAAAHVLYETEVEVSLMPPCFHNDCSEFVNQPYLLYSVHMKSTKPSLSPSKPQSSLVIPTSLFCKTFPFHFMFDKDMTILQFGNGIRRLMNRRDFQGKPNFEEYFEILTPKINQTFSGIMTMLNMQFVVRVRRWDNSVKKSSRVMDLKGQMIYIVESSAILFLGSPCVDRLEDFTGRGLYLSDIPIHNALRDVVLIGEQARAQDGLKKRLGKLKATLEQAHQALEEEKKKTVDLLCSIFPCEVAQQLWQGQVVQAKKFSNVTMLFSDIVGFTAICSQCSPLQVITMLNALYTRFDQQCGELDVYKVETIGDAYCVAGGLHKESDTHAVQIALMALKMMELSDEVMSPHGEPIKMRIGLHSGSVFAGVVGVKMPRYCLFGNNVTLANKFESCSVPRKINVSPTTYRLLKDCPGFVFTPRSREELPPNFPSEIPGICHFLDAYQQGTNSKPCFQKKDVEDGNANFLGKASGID
Method: I. CGMP Expression Test Based on InCap Cells
10 g of BSA was dissolved in 100 mL of double-distilled water (ddH2O) to obtain 10% BSA.
1 mg of ODQ powder was weighed and dissolved in 534 μL of DMSO to prepare 10 mM ODQ solution. The solution was aliquoted and stored in a −20° C. refrigerator.
• a) 50 μL of cGMP-D2 (D2-labeled cyclic guanosine monophosphate) was added to 1 mL of lysis buffer and mixed thoroughly. • b) 50 μL of anti-cGMP cryptate (Eu^3+ cryptate-labeled anti-cyclic guanosine monophosphate antibody) was added to 1 mL of lysis buffer and mixed thoroughly.
• (1) The compound was diluted to a concentration of 10 mM using DMSO. • (2) A serial dilution of the compound was performed, resulting in 10 different concentration levels of each compound. […]
• (1) cGMP-D2 was transferred to a 384-well plate at 5 μL per well. […] Centrifugation was performed at 1500 rpm for 1 minute. • (2) Incubation was carried out at room temperature for 1 hour. • (3) The plates were read using envision at 665/615 wavelengths.
• (1) cGMP standard curve: A standard curve was generated using GraphPad Prism, based on the ratio of cGMP concentration to the 665/615 wavelength values. • (2) Conversion of HTRF (homogeneous time-resolved fluorescence) ratio (665/615) to cGMP concentration: In GraphPad Prism, the HTRF ratio (665/615) was copied to the ratio column of the cGMP standard curve. […]

[2] = In vitro hepatocyte metabolic stability, mouse; assay type: in vitro ADME; conditions: hepatocytes (cryopreserved, suspension), 0.5×10^6 cells/mL
Method: (§1) • 1. Experimental objective: The aim of the study was to assess the stability of the compounds in hepatocytes of different species. • 2. Experimental steps:
(§2) A variety of 96-well precipitation plates were prepared and labeled as T0, T15, T30, T60, T90, T0-MC, T90-MC, and blank matrix, respectively. Revival medium and incubation medium were taken in advance and pre-warmed in a 37° C. water bath. Hepatocytes of different species, stored in a liquid nitrogen tank, were taken and immediately immersed in a 37° C. water bath for approximately 90 seconds. Once partially thawed, cells were transferred to centrifuge tubes containing 40 mL of revival medium, and gently inverted to resuspend the cells in the revival medium. At room temperature, cells were centrifuged at 100×g for 5 minutes. The supernatant was discarded, and the hepatocytes were resuspended in an appropriate volume of incubation medium. Viability was calculated using trypan blue staining. 198 μL of hepatocyte suspension (0.51×10^6 cells/mL) was added to pre-warmed incubation plates. For the control group, 198 μL of hepatocyte-free incubation medium was added to T0-MC and […] plates. All plates were pre-incubated for 10 minutes in a 37° C. incubator. […] All samples were mixed well and analyzed using LC/MS/MS methods.

[3] = In vitro hepatocyte metabolic stability, rat; assay type: in vitro ADME; conditions: hepatocytes (cryopreserved, suspension), 0.5×10^6 cells/mL
Method: as §1, §2

[4] = In vitro hepatocyte metabolic stability, human; assay type: in vitro ADME; conditions: hepatocytes (cryopreserved, suspension), 0.5×10^6 cells/mL
Method: as §1, §2

Question: Which Crystal form ([1]; 40° C./75% RH (open), Day 5) does the source give for COC12CC([C@H](CC(=O)O)c3ccc(Cl)c(NC(=O)[C@H](c4ccc(Cl)cc4)[C@@H](C)C(F)(F)F)c3)(C1)C2 here?
Answer: Its Crystal form is “Crystal form A”.

Question: What about the Crystal form ([1]; 40° C./75% RH (open), Day 10) of the same molecule?
Answer: Its Crystal form is “Crystal form A”.

Question: What about the Crystal form ([1]; 40° C./75% RH (open), Month 1) of the same molecule?
Answer: Its Crystal form is “Crystal form A”.

Question: And the Crystal form ([1]; 60° C./75% RH (open), Day 5)?
Answer: The Crystal form was “Crystal form A”.

Question: And the Crystal form ([1]; 60° C./75% RH (open), Day 10)?
Answer: The Crystal form was “Crystal form A”.

Question: And the Crystal form ([1]; 60° C./75% RH (open), Month 1)?
Answer: Its Crystal form is “Crystal form A”.

Question: And the Crystal form ([1]; Day 0 (initial))?
Answer: Its Crystal form is “Crystal form A”.

Question: What about the Crystal form ([1]; High humidity (25° C./relative humidity: 92.5%, open), Day 5) of the same molecule?
Answer: The Crystal form was “Crystal form A”.

Question: And the Crystal form ([1]; High humidity (25° C./relative humidity: 92.5%, open), Day 10)?
Answer: Its Crystal form is “Crystal form A”.

Question: What about the Crystal form ([1]; High humidity (25° C./relative humidity: 92.5%, open), Month 1) of the same molecule?
Answer: Its Crystal form is “Crystal form A”.

Question: And the Crystal form ([1]; High temperature (60° C., open), Day 5)?
Answer: The Crystal form was “Crystal form A”.

Question: And the Crystal form ([1]; High temperature (60° C., open), Day 10)?
Answer: The Crystal form was “Crystal form A”.

Question: And the Crystal form ([1]; High temperature (60° C., open), Month 1)?
Answer: Its Crystal form is “Crystal form A”.

Question: What about the Crystal form ([1]; Strong light (5000 lx, sealed), Day 5) of the same molecule?
Answer: Its Crystal form is “Crystal form A”.

Question: And the Crystal form ([1]; Strong light (5000 lx, sealed), Day 10)?
Answer: The Crystal form was “Crystal form A”.

Question: And the Crystal form ([1]; Strong light (5000 lx, sealed), Month 1)?
Answer: Its Crystal form is “Crystal form A”.

Question: And the EC50 (sGC; cGMP production in LNCap cells)?
Answer: The EC50 was 21.2 nM.

Question: What about the MEC (sGC; minimum effective concentration to stimulate cGMP production in LNCap cells (greater than three times the baseline value)) of the same molecule?
Answer: Its MEC is 6.93 nM.

Question: What does the source list for COC12CC([C@H](CC(=O)O)c3ccc(Cl)c(NC(=O)[C@H](c4ccc(Cl)cc4)[C@@H](C)C(F)(F)F)c3)(C1)C2 [Compound of formula (I)]?
Answer: half-life at 1 μM [2]: 1.42 h; CLint scaled at 1 μM ([2]; read-out: CLint (liver)): 193 mL/min/kg; half-life at 1 μM [3]: 1.3 h; CLint scaled at 1 μM ([3]; read-out: CLint (liver)): 82.9 mL/min/kg; half-life at 1 μM [4]: 2.58 h; CLint scaled at 1 μM ([4]; read-out: CLint (liver)): 24.9 mL/min/kg
